Literature values as cited in patent publication US6416998B1, “Plasmid encoding a modified steroid hormone” (Baylor College of Medicine, priority 1992, dated 2002).

Legend:
Details in all cases: cited from earlier work
[1] = molecular target: T1, human progesterone receptor (Homo sapiens, UniProt P06401)
T1 sequence (P06401 1-933): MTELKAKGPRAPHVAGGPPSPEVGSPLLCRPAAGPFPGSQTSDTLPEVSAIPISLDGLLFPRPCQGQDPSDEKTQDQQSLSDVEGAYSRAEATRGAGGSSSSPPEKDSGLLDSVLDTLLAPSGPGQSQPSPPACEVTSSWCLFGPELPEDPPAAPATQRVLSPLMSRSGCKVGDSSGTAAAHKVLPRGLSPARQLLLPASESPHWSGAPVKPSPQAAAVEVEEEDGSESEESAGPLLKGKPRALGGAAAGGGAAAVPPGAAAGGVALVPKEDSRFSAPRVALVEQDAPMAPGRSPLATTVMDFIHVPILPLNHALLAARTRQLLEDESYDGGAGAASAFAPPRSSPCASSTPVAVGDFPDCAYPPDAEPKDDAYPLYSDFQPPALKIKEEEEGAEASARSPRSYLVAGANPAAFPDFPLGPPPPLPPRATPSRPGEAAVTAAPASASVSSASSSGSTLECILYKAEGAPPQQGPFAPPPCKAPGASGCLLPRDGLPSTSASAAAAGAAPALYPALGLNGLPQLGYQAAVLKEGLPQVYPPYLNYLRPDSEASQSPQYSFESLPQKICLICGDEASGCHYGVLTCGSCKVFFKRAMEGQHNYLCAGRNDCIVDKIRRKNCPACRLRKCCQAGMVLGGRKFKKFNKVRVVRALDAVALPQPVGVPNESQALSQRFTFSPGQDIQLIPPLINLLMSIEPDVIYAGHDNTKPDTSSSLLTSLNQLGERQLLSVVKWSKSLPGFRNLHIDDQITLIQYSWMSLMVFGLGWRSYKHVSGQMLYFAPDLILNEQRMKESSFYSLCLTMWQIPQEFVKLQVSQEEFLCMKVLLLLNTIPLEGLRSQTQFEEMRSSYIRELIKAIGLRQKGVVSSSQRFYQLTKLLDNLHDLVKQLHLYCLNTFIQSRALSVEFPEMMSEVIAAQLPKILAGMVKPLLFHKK

[2] = molecular target: T2, rat progesterone receptor (Rattus norvegicus, UniProt Q63449)
T2 sequence (Q63449 1-923): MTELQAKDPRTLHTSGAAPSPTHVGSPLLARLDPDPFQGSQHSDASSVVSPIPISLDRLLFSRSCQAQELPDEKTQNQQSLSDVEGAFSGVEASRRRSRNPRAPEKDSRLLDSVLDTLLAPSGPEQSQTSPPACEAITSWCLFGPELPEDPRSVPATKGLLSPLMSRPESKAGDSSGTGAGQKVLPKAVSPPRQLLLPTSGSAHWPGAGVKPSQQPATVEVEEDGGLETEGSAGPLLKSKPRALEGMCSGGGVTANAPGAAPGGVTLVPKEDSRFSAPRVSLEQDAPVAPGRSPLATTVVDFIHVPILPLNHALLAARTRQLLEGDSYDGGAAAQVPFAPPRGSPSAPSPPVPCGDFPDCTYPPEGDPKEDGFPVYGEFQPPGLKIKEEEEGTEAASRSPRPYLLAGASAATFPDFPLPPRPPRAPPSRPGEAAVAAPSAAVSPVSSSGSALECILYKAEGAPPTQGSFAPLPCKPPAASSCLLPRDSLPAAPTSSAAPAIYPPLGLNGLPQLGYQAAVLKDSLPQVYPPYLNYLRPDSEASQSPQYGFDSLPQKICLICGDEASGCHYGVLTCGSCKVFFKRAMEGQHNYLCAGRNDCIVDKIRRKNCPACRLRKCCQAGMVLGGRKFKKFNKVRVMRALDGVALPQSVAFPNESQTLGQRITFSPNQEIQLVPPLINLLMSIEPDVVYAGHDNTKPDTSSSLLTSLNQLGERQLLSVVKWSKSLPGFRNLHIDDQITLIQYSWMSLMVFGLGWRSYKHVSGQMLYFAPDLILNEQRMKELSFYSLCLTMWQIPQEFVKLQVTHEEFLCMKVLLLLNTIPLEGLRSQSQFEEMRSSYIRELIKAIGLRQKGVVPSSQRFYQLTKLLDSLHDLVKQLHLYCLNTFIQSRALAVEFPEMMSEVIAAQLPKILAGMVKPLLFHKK

[3] = molecular target: T3, chicken progesterone receptor (Gallus gallus, UniProt P07812)
T3 sequence (P07812 1-786): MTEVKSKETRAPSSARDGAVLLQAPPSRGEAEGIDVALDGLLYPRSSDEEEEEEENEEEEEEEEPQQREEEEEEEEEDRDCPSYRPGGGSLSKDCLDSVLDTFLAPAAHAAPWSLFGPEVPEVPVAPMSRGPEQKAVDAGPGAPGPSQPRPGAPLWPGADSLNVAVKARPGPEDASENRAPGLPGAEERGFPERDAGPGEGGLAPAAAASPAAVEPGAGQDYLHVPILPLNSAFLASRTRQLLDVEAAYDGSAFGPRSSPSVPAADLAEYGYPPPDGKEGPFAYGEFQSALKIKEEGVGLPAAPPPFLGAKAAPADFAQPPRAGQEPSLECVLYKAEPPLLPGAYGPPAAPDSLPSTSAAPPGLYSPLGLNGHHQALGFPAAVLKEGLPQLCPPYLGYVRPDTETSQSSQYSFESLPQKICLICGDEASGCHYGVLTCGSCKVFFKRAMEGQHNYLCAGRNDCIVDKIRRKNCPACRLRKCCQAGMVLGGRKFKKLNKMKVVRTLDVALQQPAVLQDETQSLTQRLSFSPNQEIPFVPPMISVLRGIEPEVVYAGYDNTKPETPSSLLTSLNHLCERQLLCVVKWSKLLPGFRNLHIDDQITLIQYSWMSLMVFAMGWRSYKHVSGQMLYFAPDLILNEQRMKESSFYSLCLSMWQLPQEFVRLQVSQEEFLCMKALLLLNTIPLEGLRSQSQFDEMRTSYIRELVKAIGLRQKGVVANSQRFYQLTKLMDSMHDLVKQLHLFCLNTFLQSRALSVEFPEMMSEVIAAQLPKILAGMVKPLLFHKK

Vitamin D receptor = molecular target: T4, Vitamin D receptor (Homo sapiens, UniProt P11473)
T4 sequence (P11473 1-427): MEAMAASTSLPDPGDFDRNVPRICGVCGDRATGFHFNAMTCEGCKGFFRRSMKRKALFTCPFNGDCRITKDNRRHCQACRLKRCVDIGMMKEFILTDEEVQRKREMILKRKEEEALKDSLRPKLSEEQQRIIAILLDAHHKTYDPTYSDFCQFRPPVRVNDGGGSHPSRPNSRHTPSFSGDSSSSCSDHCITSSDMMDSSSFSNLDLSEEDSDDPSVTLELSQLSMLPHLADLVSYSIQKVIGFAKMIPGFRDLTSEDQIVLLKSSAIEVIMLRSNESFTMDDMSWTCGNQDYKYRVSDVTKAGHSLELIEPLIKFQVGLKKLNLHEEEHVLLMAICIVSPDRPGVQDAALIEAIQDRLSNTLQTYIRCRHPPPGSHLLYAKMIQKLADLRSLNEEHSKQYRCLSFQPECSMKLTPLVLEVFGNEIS

| SMILES | binding [1] | binding [2] | binding [3] | receptor activation (Vitamin D receptor) |
| --- | --- | --- | --- | --- |
| CC(=O)[C@H]1CC[C@H]2[C@@H]3CC[C@H]4CC(=O)CC[C@]4(C)[C@H]3CC[C@]12C [5α-pregnane-3,20-dione] | does not bind or binds very poorly | binds extremely well | binds extremely well | – |
| C=C1CC[C@H](O)C/C1=C/C=C1\CCC[C@]2(C)[C@@H]([C@H](C)CCC(O)C(C)(C)O)CC[C@@H]12 (stereo partly shown) [24,25-dihydroxy-Vitamin D] | – | – | – | does not |
